“Also recorded” adds a separate entry of the source. Read-outs that look alike come from different tables or passages of the source.
Assays:
HEKnorm = test: DHM phase signal recording on non-transfected HEK cells (HEKnorm); format: cell-based; details: −100 mV, GABA 3 μM, 30 s
Method: (§1) Electrophysiology recording: All cultures were perfused in an artificial cerebrospinal fluid (ACSF) containing (in mM): […] (pH 7.4; Room temperature). For some experiments performed on HEK cells, picrotoxin (30 μM, Tocris) was added to the ACSF. […] Whole-cell recordings were made, and signals were amplified by using Multiclamp 700B amplifiers (Axon Instruments, Union City, Calif.) and digitized by means of an ITC-1600 interface (Instrutech, Great Neck, N.Y.) to a PC computer running Igor Pro (Wavemetrics, Portland, Oreg.). All currents (sampling interval, 5 kHz) were low-pass filtered (2 kHz). They were recorded with pipettes containing 95 mM potassium-gluconate, 40 mM KCl, 10 mM Hepes, 2 mM MgCl2 (pH 7.3). For some experiments, 95 mM potassium-gluconate was substituted with 95 mM KCl to reach a final concentration of [Cl^−]intrapip, to 139 mM. The pipettes were pulled with a DMZ universal puller.
Imaging: Holograms are acquired with a DHMT 1000 (Lyncée Tech SA, PSE-EPFL). […] The object wave diffracted by the specimen is collected by a microscope objective and interferes with a reference beam to produce the hologram recorded by the CCD camera. […] The reconstruction algorithm provides simultaneous amplitude and quantitative phase images of the cells (Koala software).

[1] = test system: cortical neurons in primary culture; test: DHM multisite phase recording on unpatched cortical neurons in primary culture; format: cell-based, mice; details: GABA 100 μM, 30 s
Method: Neuronal cell cultures: Primary cultures of cortical neurons were prepared from E17 OF1 mice embryos. Briefly, embryos were decapitated and brains removed and placed in PBS-glucose. Cortex was removed under a dissecting microscope and collected in a small Petri dish in PBS-glucose. Cell dissociation was obtained by gentle trituration with a fire-polished Pasteur pipette in Neurobasal medium supplemented with B27 and GlutaMAX (Invitrogen). Cells were plated at an average density of 15000 cells/cm^2 in supplemented Neurobasal medium on poly-ornithine coated glass coverslips (20 mm Ø). After 3-4 h, coverslips were transferred to dishes containing glial cell monolayers in supplemented Neurobasal medium. Neurons were maintained at 37° C. in a humidified atmosphere of 95% air/5% CO2 and were used after 21-35 days in vitro (DIV).
Imaging: Holograms are acquired with a DHMT 1000 (Lyncée Tech SA, PSE-EPFL). A laser diode produces the coherent light (λ=683 nm) which is divided by a beam splitter into a reference wave and an object wave. The object wave diffracted by the specimen is collected by a microscope objective and interferes with a reference beam to produce the hologram recorded by the CCD camera. Frequency of hologram acquisition is 0.2 Hz. Reconstruction of the original image from the hologram is numerically achieved by a computer. The reconstruction algorithm provides simultaneous amplitude and quantitative phase images of the cells (Koala software). It is important to note that an extensive quality control of the DHM technique has been published by Rappaz et al “Comparative study of human erythrocytes by digital holographic microscopy, confocal microscopy, and impedance volume analyzer” Cytom Part A 73A, 895-903 (2008).
Neurons also presented heterogeneous phase responses.

[2] = target: T1, rat GABAA α1β2γ2s receptor expressed in HEK 293 cells (HEKGABA) (Rattus norvegicus, UniProt P18508+P62813+P63138); format: cell-based; details: −100 mV, picrotoxin 30 μM; for effect on phase signal in HEKGABA (in words): GABA 3 μM, muscimol 1 μM, 30 s
T1 sequence (P63138 25-474): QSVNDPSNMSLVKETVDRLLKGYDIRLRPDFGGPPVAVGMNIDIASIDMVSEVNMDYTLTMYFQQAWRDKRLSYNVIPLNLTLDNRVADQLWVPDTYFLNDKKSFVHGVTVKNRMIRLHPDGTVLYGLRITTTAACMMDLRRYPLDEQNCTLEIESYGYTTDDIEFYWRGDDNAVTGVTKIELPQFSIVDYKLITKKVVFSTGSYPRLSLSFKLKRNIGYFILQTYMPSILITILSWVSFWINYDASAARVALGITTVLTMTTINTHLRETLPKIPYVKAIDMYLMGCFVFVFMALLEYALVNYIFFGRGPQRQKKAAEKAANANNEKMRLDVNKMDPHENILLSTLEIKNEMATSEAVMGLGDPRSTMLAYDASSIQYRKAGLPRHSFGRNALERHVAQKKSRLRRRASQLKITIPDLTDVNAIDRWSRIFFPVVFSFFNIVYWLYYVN
T1 sequence (P18508 39-466): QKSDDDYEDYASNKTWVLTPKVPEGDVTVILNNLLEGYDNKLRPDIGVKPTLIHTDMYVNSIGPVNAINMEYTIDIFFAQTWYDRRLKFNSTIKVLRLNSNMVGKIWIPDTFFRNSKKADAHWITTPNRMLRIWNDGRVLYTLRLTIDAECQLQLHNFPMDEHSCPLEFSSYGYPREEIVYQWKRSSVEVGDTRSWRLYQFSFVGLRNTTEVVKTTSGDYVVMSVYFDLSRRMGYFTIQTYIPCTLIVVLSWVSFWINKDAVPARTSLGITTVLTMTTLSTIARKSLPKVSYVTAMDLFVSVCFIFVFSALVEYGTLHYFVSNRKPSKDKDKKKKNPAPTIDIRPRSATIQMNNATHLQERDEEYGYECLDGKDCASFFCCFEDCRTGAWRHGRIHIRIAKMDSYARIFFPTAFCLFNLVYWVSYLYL
T1 sequence (P62813 28-455): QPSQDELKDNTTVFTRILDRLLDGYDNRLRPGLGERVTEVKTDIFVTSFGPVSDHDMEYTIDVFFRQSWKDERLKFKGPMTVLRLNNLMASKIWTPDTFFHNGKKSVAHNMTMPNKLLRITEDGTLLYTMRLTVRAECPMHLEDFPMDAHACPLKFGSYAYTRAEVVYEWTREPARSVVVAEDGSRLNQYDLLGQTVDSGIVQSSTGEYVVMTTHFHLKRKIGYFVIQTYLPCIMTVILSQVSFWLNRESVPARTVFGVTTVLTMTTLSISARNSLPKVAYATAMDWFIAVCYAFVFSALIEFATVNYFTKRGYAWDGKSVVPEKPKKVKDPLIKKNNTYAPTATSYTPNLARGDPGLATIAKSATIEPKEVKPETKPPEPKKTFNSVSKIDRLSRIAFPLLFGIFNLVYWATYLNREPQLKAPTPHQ
Text: HEKGABA cells: HEK 293 cells stably expressing configurations of rat GABAA receptors (HEKGABA) were generously given by Hoffmann-LaRoche (Basel, Switzerland). Briefly, cDNAs encoding rat GABAA α1, β2 and γ2s subunits were subcloned into the expression vectors pIRESpuro2, pIRESneo2 and pIREShygro2 vectors (Clontech, Mountain View, Calif.), respectively. The pIRES/GABAA α1, β2, γ2s, constructs were sequenced to confirm their nucleotide sequence and then cotransfected into HEK 293 cells at a ratio of 1:1:2 (plasmid mass ratio) using the lipofectamine 2000 kit according to the manufacturer's instructions (Invitrogen, Carlsbad, Calif., USA). Transfected cells were grown in minimal essential medium (Invitrogen) supplemented with 10% fetal calf serum (Invitrogen), 20 mM HEPES (Invitrogen) and 100 U/ml penicillin/100 μg/ml streptomycin (Invitrogen) for 48 hours and then, the cells were transferred to the selection medium containing 0.3 μg/ml puromycin (Clontech, Mountain View, Calif., USA), 300 μg/ml hygromycin B (Roche Diagnostics, Mannheim, Germany) and 200 μg/ml G418 (Invitrogen) for the generation of stable cell lines. Cell colonies were isolated and expression of the GABAA α1β2γ2s receptor was determined by [^3H] flumazenil binding.
as §1
Imaging: Holograms are acquired with a DHMT 1000 (Lyncée Tech SA, PSE-EPFL). A laser diode produces the coherent light (λ=683 nm) which is divided by a beam splitter into a reference wave and an object wave. The object wave diffracted by the specimen is collected by a microscope objective and interferes with a reference beam to produce the hologram recorded by the CCD camera. Frequency of hologram acquisition is 0.2 Hz. Reconstruction of the original image from the hologram is numerically achieved by a computer. The reconstruction algorithm provides simultaneous amplitude and quantitative phase images of the cells (Koala software).
Offline analysis: The electrophysiological and optical recordings were analysed by using MATLAB 7.6 (Mathworks Software, Natick, Mass.) and all curves have been fitted by using ORIGIN 7.5 (Microcal Software, Northampton, Mass.). […] All data are presented as means±SEM. Student's t-test (paired or unpaired) to determine statistical significance (p<0.05).

[3] = target: T1, rat GABAA α1β2γ2s receptor expressed in HEK 293 cells (HEKGABA); test: Whole-cell electrophysiology recording of GABAA current (IGABA, I/V curve) on HEKGABA cells; format: cell-based; details: GABA 3 μM or muscimol 1 μM, 30 s
Text: HEKGABA cells: HEK 293 cells stably expressing configurations of rat GABAA receptors (HEKGABA) were generously given by Hoffmann-LaRoche (Basel, Switzerland). Briefly, cDNAs encoding rat GABAA α1, β2 and γ2s subunits were subcloned into the expression vectors pIRESpuro2, pIRESneo2 and pIREShygro2 vectors (Clontech, Mountain View, Calif.), respectively. The pIRES/GABAA α1, β2, γ2s, constructs were sequenced to confirm their nucleotide sequence and then cotransfected into HEK 293 cells at a ratio of 1:1:2 (plasmid mass ratio) using the lipofectamine 2000 kit according to the manufacturer's instructions (Invitrogen, Carlsbad, Calif., USA). […] Cell colonies were isolated and expression of the GABAA α1β2γ2s receptor was determined by [^3H] flumazenil binding.
Electrophysiology recording: All cultures were perfused in an artificial cerebrospinal fluid (ACSF) containing (in mM): NaCl 150, KCl 3, D-glucose, 10 HEPES 10, CaCl2 3, and mM MgCl2. […] They were recorded with pipettes containing 95 mM potassium-gluconate, 40 mM KCl, 10 mM Hepes, 2 mM MgCl2 (pH 7.3). […]
Offline analysis: The electrophysiological and optical recordings were analysed by using MATLAB 7.6 (Mathworks Software, Natick, Mass.) and all curves have been fitted by using ORIGIN 7.5 (Microcal Software, Northampton, Mass.). […]

Molecule	effect on phase signal in HEKnorm (in words) (HEKnorm)	Δφ phase signal in HEKnorm (HEKnorm)	phase response, neurons with increase of phase signal ([1]; 3 of 46 cells)	phase response, neurons with decrease of phase signal ([1]; 13 of 46 cells)	phase response, neurons with modest or no detectable signal ([1]; 30 of 46 cells)	effect on phase signal in HEKGABA (in words) [2]	effect on phase signal in HEKGABA (in words) ([2]; listed as Muscimol)	reversal potential for Cl− (ECl) from I/V curve ([3]; [Cl−]intrapip 40 mM (44 mM elsewhere in the source))	reversal potential for Cl− (ECl) from I/V curve ([3]; [Cl−]intrapip 139 mM)	change of phase response evoked by GABA in presence of antagonist ([2]; GABA 3 μM 30 s)	effect on phase signal in HEKGABA (in words) ([2]; listed as Picrotoxin)
NCCCC(=O)O [GABA]	no effect; also recorded: ineffective	0.33±0.55 °	1.16+/−0.47 °	−2.55+/−0.29 °	−0.16+/−0.2 °						
NCc1cc(=O)[nH]o1 [muscimol, Muscimol]						mimicked the effect of GABA	mimicked	−27 mV	−4 mV		
picrotoxin						reduces the phase shift				−82±17%	blocked
